One may read the IC50 as the concentration that inhibits the measured activity by half. Low readings indicate higher potency, high ones lower potency.

This experiment concerns HSV-1. Briefly: HSV-1 replication in Vero 76 cells, viral DNA hybridization capture assay. As to conditions: Human alphaherpesvirus 1; HSV-1 infected Vero 76 cells, MOI=0.001, 40–48 hours incubation, HSV DNA detected by hybridization/chemiluminescence. The format is cell-based, herpes simplex virus 1. How it is done:
Vero 76 cells were maintained in MEM with Earle's salts, L-glutamine, 8% FBS (Hyclone, A-1111-L) and 100 units/mL Penicillin-100 μg/mL Streptomycin. For assay conditions, FBS was reduced to 2%. Cells are seeded into 96-well tissue culture plates at a density of 5×10^4 cells/well after being incubated for 45 min at 37° C. in the presence of HSV-1 or HSV-2 (MOI=0.001). Test compounds are added to the wells and the plates are incubated at 37° C. for 40–48 hours. Cell lysates are prepared as follows: media was removed and replaced with 150 μL/well 0.2 N NaOH with 1% Igepal CA 630 or NP-40. Plates were incubated up to 14 days at room temperature in a humidified chamber to prevent evaporation.
For the detection probe, a gel-purified, digoxigenin-labeled, 710-bp PCR fragment of the HSV UL-15 sequence was utilized. PCR conditions included 0.5 μM primers, 180 μM dTTP, 20 μM dUTP-digoxigenin (Boehringer Mannheim 1558706), 200 μM each of dATP, dCTP, and dGTP, 1×PCR Buffer II (Perkin Elmer), 2.5 mM MgCl2, 0.025 units/μL of AmpliTaq Gold polymerase (Perkin Elmer), and 5 ng of gel-purified HSV DNA per 100 μL. Extension conditions were 10 min at 95° C., followed by 30 cycles of 95° C. for 1 min, 55° C. for 30 sec, and 72° C. for 2 min. The amplification was completed with a 10-min incubation at 72° C. Primers were selected to amplify a 728 bp probe spanning a section of the HSV1 UL15 open reading frame (nucleotides 249–977). Single-stranded transcripts were purified with Promega M13 Wizard kits. The final product was mixed 1:1 with a mixture of 6 M GuSCN, 100 mM EDTA and 200 μg/mL herring sperm DNA and stored at 4° C.
The capture DNA plasmid (HSV UL13 region in pUC) was linearized by cutting with Xba I, denatured for 15 min at 95° C. and diluted immediately into Reacti-Bind DNA Coating Solution (Pierce, 17250, diluted 1:1 with TE buffer, pH 8) at 1 ng/μL 75 μL/well were added to Corning (#3922 or 9690) white 96-well plates and incubated at room temperature for at least 4 hrs before washing twice with 300 μL/well 0.2×SSC/0.05% Tween-20 (SSC/T buffer). The plates were then incubated overnight at room temperature with 150 μL/well 0.2 N NaOH, 1% IGEPAL and 10 μg/mL herring sperm DNA.
Twenty-seven (27) μL of cell lysate was combined with 45 μL of hybridization solution (final concentration: 3M GuSCN, 50 mM EDTA, 100 μg/ml salmon sperm DNA, 5× Denhardt's solution, 0.25×APE, and 5 ng of the digoxigenin-labeled detection probe). APE is 1.5 M NH4-acetate, 0.15 M ammonium phosphate monobasic, and 5 mM EDTA adjusted to pH 6.0. Mineral oil (50 μL) was added to prevent evaporation. The hybridization plates were incubated at 95° C. for 10 minutes to denature the DNA, then incubated at 42° C. overnight The wells were washed 6× with 300 μL/well SSC/T buffer then incubated with 75 μL/well anti-digoxigenin-HRP-conjugated antibody (Boehringer Mannheim 1207733, 1:5000 in TE) for 30 min at room temperature. The wells were washed 6× with 300 μL/well with PBS/0.05% Tween-20 before 75 μL/well SuperSignal LBA substrate (Pierce) was added. The plates were incubated at room temperature for 30 minutes and chemiluminescence was measured in a Wallac Victor reader.
The following results were obtained for HSV-1.

`Fc1ccc(-c2nn3c(NC4CCCC4)cccc3c2-c2ccnc(Nc3ccccc3)n2)cc1` [Example 1, 3-(2-Anilino-4-pyrimidinyl)-N-cyclopentyl-2-(4-fluorophenyl)pyrazolo[1,5-α]pyridin-7-amine] had an IC50 of 500 nM.

`COc1cc(Nc2nccc(-c3c(-c4ccc(F)cc4)nn4c(NC5CCCC5)cccc34)n2)cc(OC)c1OC` [Example 2, N-Cyclopentyl-2-(4-fluorophenyl)-3-[2-(3,4,5-trimethoxyanilino)-4-pyrimidinyl]pyrazolo[1,5-α]pyridin-7-amine] had an IC50 of 400 nM. Then `COc1ccc(Nc2nccc(-c3c(-c4ccc(F)cc4)nn4c(NC5CCCC5)cccc34)n2)cc1` [Example 3, N-Cyclopentyl-2-(4-fluorophenyl)-3-[2-(4-methoxyanilino)-4-pyrimidinyl]pyrazolo[1,5-α]pyridin-7-amine], with 1250 nM; and `Fc1ccc(Nc2nccc(-c3c(-c4ccc(F)cc4)nn4c(NC5CCCC5)cccc34)n2)cc1` [Example 4, N-Cyclopentyl-3-[2-(4-fluoroanilino)-4-pyrimidinyl]-2-(4-fluorophenyl)pyrazolo[1,5-α]pyridin-7-amine], with 600 nM. Take `COc1ccc(-c2nn3c(NC4CCCC4)cccc3c2-c2ccnc(Nc3cccc(C(=O)c4ccccc4)c3)n2)cc1` [Example 5, [3-({4-[7-(Cyclopentylamino)-2-(4-methoxyphenyl)pyrazolo[1,5-α]pyridin-3-yl]-2-pyrimidinyl}amino)phenyl](phenyl)methanone]: inhibition was half-maximal at 2800 nM (IC50). Next, `Fc1ccc(-c2nn3ccc(Cl)cc3c2-c2ccnc(Nc3ccccc3)n2)cc1` [Example 6, 4-[5-Chloro-2-(4-fluorophenyl)pyrazolo[1,5-α]pyridin-3-yl]-N-phenyl-2-pyrimidinamine]: 14000 nM; `Fc1ccc(-c2nn3ccc(NC4CCCC4)cc3c2-c2ccnc(Nc3ccccc3)n2)cc1` [Example 7, N-[3-(2-Anilino-4-pyrimidinyl)-2-(4-fluorophenyl)pyrazolo[1,5-α]pyridin-5-yl]-N-cyclopentylamine]: 3300 nM; `Fc1ccc(-c2nn3c(NC4CCCC4)cc(Cl)cc3c2-c2ccnc(Nc3ccccc3)n2)cc1` [Example 8, 3-(2-Anilino-4-pyrimidinyl)-5-chloro-N-cyclopentyl-2-(4-fluorophenyl)pyrazolo[1,5-α]pyridin-7-amine]: 160 nM. `CCSc1cc(Cl)cc2c(-c3ccnc(Nc4ccccc4)n3)c(-c3ccc(F)cc3)nn12` [Example 9, N-{4-[5-Chloro-7-(ethylsulfanyl)-2-(4-fluorophenyl)pyrazolo[1,5-α]pyridin-3-yl]-2-pyrimidinyl}-N-phenylamine] registered an IC50 of 2000 nM. As to `COc1ccc(-c2nn3c(NC4CCCC4)cccc3c2-c2ccnc(Nc3cccc([N+](=O)[O-])c3)n2)cc1` [Example 10, N-Cyclopentyl-2-(4-methoxyphenyl)-3-[2-(3-nitroanilino)-4-pyrimidinyl]pyrazolo[1,5-α]pyridin-7-amine], the IC50 came out at 1000 nM. As for `COc1ccc(-c2nn3c(NC4CCCC4)cccc3c2-c2ccnc(Nc3cccc(CO)c3)n2)cc1` [Example 11, [3-({4-[7-(Cyclopentylamino)-2-(4-methoxyphenyl)pyrazolo[1,5-α]pyridin-3-yl]-2-pyrimidinyl}amino)phenyl]methanol], the IC50 turned out to be 700 nM.

Turning to `COc1ccc(-c2nn3c(NC4CCCC4)cccc3c2-c2ccnc(Nc3cccc(N)c3)n2)cc1` [Example 12, N^1-{4-[7-(Cyclopentylamino)-2-(4-methoxyphenyl)pyrazolo[1,5-α]pyridin-3-yl]-2-pyrimidinyl}-1,3-benzenediamine], half-maximal inhibition (IC50) was put at 700 nM.

Take `COc1ccc(-c2nn3c(NC4CCCC4)cccc3c2-c2ccnc(Nc3cccc(N=[N+]=[N-])c3)n2)cc1` [Example 13, 3-[2-(3-Azidoanilino)-4-pyrimidinyl]-N-cyclopentyl-2-(4-methoxyphenyl)pyrazolo[1,5-α]pyridin-7-amine]: half-maximal inhibition (IC50) required 800 nM.

These data come from US7160897B2, “Therapeutic compounds” (SmithKline Beecham Corporation, priority 2000, dated 2007).
